Experimental data as given in patent US8507554B2 (priority 2006, dated 2013).

Assays:
P. aeruginosa [1] = assay: Inhibiting ability against biofilm formation: count of adhesive P. aeruginosa on specimen surface after 4 hours; type: cell-based, Pseudomonas aeruginosa; details: 10 μmol/L, table shows Comparative example 1 (distilled water) = 100
Description: Inhibiting ability against biofilm formation of quorum-sensing antagonist prepared according to exemplary embodiments 1-7 was evaluated.
Specimen was set in nutrient flask containing 10 μmol/L of quorum-sensing antagonist prepared according to exemplary embodiments 1-7 and P. aeruginosa which has strong adhesive character on surface. Numbers of adhesive P. aeruginosa on surface were counted after 4 hours. Distilled water was poured into nutrient flask instead of quorum-sensing antagonist as a comparison example 1. Numbers of adhesive P. aeruginosa on surface were counted after 4 hours. […] Numbers of adhesive P. aeruginosa on surface were counted after 4 hours. […]

[2] = system: E. coli DH5α co-transformed by pJN105L (LasR expression plasmid) and pSC11 (lasI::lacZ fusion reporter plasmid); assay: LacZ bioassay of quorum-sensing antagonistic ability with co-transformed E. coli DH5α (LasR reporter); type: cell-based; details: 1 μM autoinducer 3-oxo-C12-HSL plus 1, 2 or 10 μM of compound
Description: Transformant E. coli was cultured in Luria-Bertani (LB) broth with 10 μg/mL gentamicin and 50 μg/mL ampicillin at 37° C.
For LacZ bioassay of 2-(phenylcarbonothioylthio) acetyl homoserine lactone, an overnight culture was diluted at 1:100 and incubated up to an optical density of 0.3 at 600 nm (OD600) at 30° C. Then, 0.4% arabinose was added.
After vaporizing chloroform in 4 test tubes at 37° C. for 2 hours, 4.0 mL of the diluted reporter strain culture was added to No. 1˜No. 4 test tubes.
(§1) LacZ Bioassay for test tubes described above was performed using Tropix-plus kit (Applied Biosystems, USA). Luminescence measurements were performed after 2 hours of incubation using a luminescence meter (Thermo Electron Co.). Bacterial cell density was measured by optical densities at 600 nm (OD600) using a UV spectrophotometer (HP8452A, H.P.).
The antagonist activities of 2-(phenylcarbonothioylthio) acetyl homoserine lactone were expressed as a specific luminescence; relative light units/OD600.

Vibrio harveyi BB886 = assay: Bioluminescence assay of quorum-sensing antagonistic ability with reporter strain Vibrio harveyi BB886; type: cell-based; details: 2 hours
Description: Quorum-sensing antagonistic ability of 2-(phenylcarbonothioylthio) acetyl homoserine lactone as described in Formula 8 was evaluated using Vibrio harveyi strain BB886 which responds to the AI-1, i.e., N-(3-hydroxybutanoyl)-1-homoserine lactone (3-OH—C4-HSL) as reporter strain. Vibrio harveyi strain BB886 was grown in LBS medium (10 g/L tryptone, 5 g/L yeast extract, 20 g/L NaCl) at 30° C. For the bioluminescence assay, an overnight culture was diluted 100-fold in a sterile AI bioassay (AB) medium (300 mM NaCl, 50 mM MgSO4, 0.2% (w/v) vitamin-free casamino acid, 10 mM potassium phosphate, 1 mM 1-arginine, 1% glycerol; pH 7.5).
After vaporizing chloroform in 4 test tubes at 30° C. for 2 hours, 4.0 mL of the diluted reporter strain culture was added to No. 1˜No. 4 test tubes and incubated at 30° C. Luminescence measurements were performed after 2 hours of incubation using a luminescence meter (Thermo Electron Co.). Bacterial cell density was measured by optical densities at 600 nm (OD600) using a UV spectrophotometer (HP8452A, H.P.). The antagonist activities of 2-(phenylcarbonothioylthio) acetyl homoserine lactone were expressed as a specific luminescence; relative light units/OD600. […]

[3] = system: Agrobacterium tumefaciens A136(pTiA136, pCF218, pCF372); assay: LacZ luminescence assay of quorum-sensing antagonistic ability with reporter strain A. tumefaciens A136; type: cell-based; details: 0.5 μM autoinducer 3-oxo-C8-HSL plus 5 μM of compound
Description: A. tumefaciens A136 (pTiA136, pCF218, and pCF372) was cultured in Luria-Bertani (LB) media with 50 μg/mL spectinomycin and 4.5 μg/mL tetracycline at 30° C. For the bioassay of 2-(phenylcarbonothioylthio) acetyl homoserine lactone, an overnight culture was diluted at 1:100 and incubated up to an optical density of 0.3 at 600 nm (OD600) at 30° C.
No. 1 solution contained 0.5 μM of N-3-oxootanoyl homoserine lactone.
After vaporizing chloroform in 2 test tubes at 30° C. for 2 hours, 4.0 mL of the diluted reporter strain culture was added to No. 1 and No. 2 test tubes.
as §1, with “quantative analysis” for “Bioassay”, “H. P.). The antagonist activities of 2-(phenylcarbonothioylthio) acetyl homoserine lactone were expressed as a specific luminescence; relative light units/OD600.” for “H.P.).”

P. aeruginosa [4] = assay: Microscopy of P. aeruginosa biofilm grown on specimens for 48 hours; type: cell-based, Pseudomonas aeruginosa; details: biofilm grown 48 hours
Description: Specimens were set in nutrient flasks containing compounds according to the first exemplary embodiment 1, comparative examples 1 and 2. Biofilm was grown on the specimens for 48 hours. The specimen were examined using microscope. Furthermore, specimens were set in nutrient flasks containing compounds according to exemplary embodiment 6 and comparative example 2. Biofilm on the specimens was grown for 48 hours. The specimens were examined using a microscope.

Structure (SMILES) | % of adhesive P. aeruginosa relative to comparative example (P. aeruginosa [1]) [%] | other results
CCCCCCCCCC(=O)CC(=O)N[C@H]1CCOC1=O [Comparative example 2, N-3-oxododecanoylhomoserinelactone, reference compound] | 190 | –
O=C(CSc1ncccn1)NC1CCOC1=O (stereo not shown) [Example 2] | 51 | –
CSCC(=O)NC1CCOC1=O (stereo not shown) [Example 5, 2-(methylthio)-N-(2-oxo-tetrahydrofuran-3-yl)acetamide] | 30 | –
O=C(CSC(=S)c1ccccc1)NC1CCOC1=O (stereo not shown) [Example 6, 2-(phenylcarbonothioylthio)acetyl homoserine lactone] | 20 | luminescence intensity per co-transformed E. coli DH5α (relative light units/OD600) [2]: decreased remarkably; luminescence intensity per V. harveyi (relative light units/OD600) (Vibrio harveyi BB886; 1 μM autoinducer 3-OH-C4-HSL plus 1, 5 or 10 μM of compound): decreased remarkably; luminescence intensity per A. tumefaciens A136 (relative light units/OD600) [3]: decreased remarkably
O=C(O)CSCC(=O)NC1CCOC1=O (stereo not shown) [Example 3, 2-(2-oxo-2-(2-oxo-tetrahydrofuran-3-ylamino)ethylthio)acetic acid] | 33 | –
O=C(O)CSCCSCC(=O)NC1CCOC1=O (stereo not shown) [Example 4, 2-(2-(2-oxo-2-(2-oxo-tetrahydrofuran-3-ylamino)ethylthio)ethylthio)acetic acid] | 13 | –
O=C(CSc1ccncc1)NC1CCOC1=O (stereo not shown) [Example 1, N-(2-oxo-tetrahydrofuran-3-yl)-2-(pyridin-4-ylthio)acetamide] | 40 | –
O=C(O)CSC(=S)SCC(=O)NC1CCOC1=O (stereo not shown) [Example 7] | 30 | –
CCCCCC(=O)CC(=O)N[C@H]1CCOC1=O [Autoinducer] | – | P. aeruginosa attached on specimen (microscopic image) (P. aeruginosa [4]): plentifully observed
C[C@@H](O)CC(=O)N[C@H]1CCOC1=O [3-hydroxybutanoylhomoserine lactone, N-(3-hydroxybutanoyl)-1-homoserine lactone, reference compound] | – | luminescence intensity per V. harveyi (relative light units/OD600) (Vibrio harveyi BB886; sample containing only 1 μM autoinducer): relatively high
